According to article PMC11748363, “Antimicrobial and Antiproliferative Properties of 2‐Phenyl‐N‐(Pyridin‐2‐yl)acetamides” (Chemical Biology & Drug Design, 2025):
≈ marks a conversion by molar mass, not a printed value. Read-outs that look alike come from different tables or passages of the source.

Assays:
[1] = system: Mycobacterium tuberculosis H37Ra; experiment: Antimycobacterial microdilution broth MIC (resazurin), Mtb H37Ra; assay type: cell-based; conditions: for MIC: Mycobacterium tuberculosis, H37RA, read-out: MIC Mtb H37Ra; for SI (selectivity index): SI = HepG2 IC50 (μM)/MIC MtbH37Ra (μM), calculated for compounds with MIC ≤ 31.25 μg/mL
[2] = system: Mycolicibacterium smegmatis DSM 43465; experiment: Antimycobacterial microdilution broth MIC (resazurin), M. smegmatis; assay type: cell-based; conditions: DSM43465, read-out: MIC M. smegmatis
[3] = system: Mycolicibacterium aurum DSM 43999; experiment: Antimycobacterial microdilution broth MIC (resazurin), M. aurum; assay type: cell-based; conditions: DSM43999, read-out: MIC M. aurum
[4] = system: HepG2 cell line; experiment: Cytotoxicity CellTiter 96, HepG2; assay type: cell-based, human; conditions: Homo sapiens, HepG2, 24 h, 24 h incubation; ^c compound precipitated in the testing medium; ^d over the limit of tested concentrations
[5] = system: Staphylococcus aureus CCM 4223, ATCC 29213; experiment: Antibacterial microdilution broth MIC, SA; assay type: cell-based; conditions: Staphylococcus aureus
[6] = system: Staphylococcus aureus subsp. aureus CCM 4750, ATCC 43300 (MRSA); experiment: Antibacterial microdilution broth MIC, MRSA; assay type: cell-based; conditions: Staphylococcus aureus
[7] = system: Staphylococcus epidermidis CCM 4418, ATCC 12228; experiment: Antibacterial microdilution broth MIC, SE; assay type: cell-based
[8] = system: Enterococcus faecalis CCM 4224, ATCC 29212; experiment: Antibacterial microdilution broth MIC, EF; assay type: cell-based
[9] = system: Escherichia coli CCM 3954, ATCC 25922; experiment: Antibacterial microdilution broth MIC, EC; assay type: cell-based
[10] = system: Acinetobacter baumannii DSM 30007, ATCC 19606; experiment: Antibacterial microdilution broth MIC, ACI; assay type: cell-based
[11] = system: Pseudomonas aeruginosa CCM 3955, ATCC 27853; experiment: Antibacterial microdilution broth MIC, PA; assay type: cell-based
[12] = system: Candida albicans CCM 8320, ATCC 24433; experiment: Antifungal microdilution broth MIC, CA
[13] = system: Candida krusei CCM 8271, ATCC 6258; experiment: Antifungal microdilution broth MIC, CK; conditions: Pichia kudriavzevii
[14] = system: Candida parapsilosis CCM 8260, ATCC 22019; experiment: Antifungal microdilution broth MIC, CP; conditions: Lodderomyces parapsilosis
[15] = system: Candida tropicalis CCM 8264, ATCC 750; experiment: Antifungal microdilution broth MIC, CT
[16] = system: Aspergillus fumigatus ATCC 204305; experiment: Antifungal microdilution broth MIC, AF
[17] = system: Lichtheimia corymbifera CCM 8077; experiment: Antifungal microdilution broth MIC, LC
[18] = system: Trichophyton interdigitale CCM 8377, ATCC 9533; experiment: Antifungal microdilution broth MIC, TI; conditions: Trichophyton interdigitale
[19] = system: Aspergillus flavus CCM 8363; experiment: Antifungal microdilution broth MIC, AFla
[20] = system: Klebsiella pneumoniae CCM 4415, ATCC 10031; experiment: Antibacterial microdilution broth MIC, KP
[21] = ATCC204305, 24 h, read-out: MIC AF 24h
[22] = ATCC204305, 48 h, read-out: MIC AF 48h
[23] = CCM8077, 24 h, read-out: MIC LC 24h
[24] = CCM8077, 48 h, read-out: MIC LC 48h
[25] = CCM8363, 24 h, read-out: MIC AFla 24h
[26] = CCM8363, 48 h, read-out: MIC AFla 48h

Row | SMILES | MIC ([1]; Calculated from MIC (μg/mL)) [µM] | MIC [1] [mg/L] | MIC [2] [mg/L] | MIC [3] [mg/L] | IC50 [4] [µM] | MIC ([5]; 24 h, read-out: MIC SA 24h) [µM] | MIC ([5]; 48 h, read-out: MIC SA 48h) [µM] | MIC ([6]; 24 h, read-out: MIC MRSA 24h) [µM] | MIC ([6]; 48 h, read-out: MIC MRSA 48h) [µM] | MIC ([7]; 24 h, read-out: MIC SE 24h) [µM] | MIC ([7]; 48 h, read-out: MIC SE 48h) [µM] | MIC ([8]; 24 h, read-out: MIC EF 24h) [µM] | MIC ([8]; 48 h, read-out: MIC EF 48h) [µM] | MIC ([9]; 24 h, read-out: MIC EC 24h) [µM] | MIC ([9]; 48 h, read-out: MIC EC 48h) [µM] | MIC ([10]; 24 h, read-out: MIC ACI 24h) [µM] | MIC ([10]; 48 h, read-out: MIC ACI 48h) [µM] | MIC ([11]; 24 h, read-out: MIC PA 24h) [µM] | MIC ([11]; 48 h, read-out: MIC PA 48h) [µM] | MIC ([12]; 24 h, read-out: MIC CA 24h) [µM] | also measured
1 | O=C(Cc1cccc(C(F)(F)F)c1)Nc1ccccn1 [Compound 25] | 223 | 62.5 | > 500 | 125 (≈ 446 µM) | 724 | > 500 | > 500 | > 500 | > 500 | > 500 | > 500 | > 500 | > 500 | > 500 | > 500 | > 500 | > 500 | > 500 | > 500 | > 500 | MIC ([12]; 48 h, read-out: MIC CA 48h): > 500 µM; MIC ([13]; 24 h, read-out: MIC CK 24h): > 500 µM; MIC ([13]; 48 h, read-out: MIC CK 48h): > 500 µM; MIC ([14]; 24 h, read-out: MIC CP 24h): > 500 µM; MIC ([14]; 48 h, read-out: MIC CP 48h): > 500 µM; MIC ([15]; 24 h, read-out: MIC CT 24h): > 500 µM; MIC ([15]; 48 h, read-out: MIC CT 48h): > 500 µM; MIC [16, 21]: > 500 µM; MIC [16, 22]: > 500 µM; MIC [17, 23]: > 500 µM; MIC [17, 24]: > 500 µM; MIC ([18]; 72 h, read-out: MIC TI 72h): 500 µM (≈ 140 µg/mL); MIC ([18]; 120 h, read-out: MIC TI 120h): 500 µM (≈ 140 µg/mL); MIC [19, 25]: > 500 µM; MIC [19, 26]: > 500 µM; MIC KP 24h [20]: > 500 µM; MIC KP 48h [20]: > 500 µM
2 | O=C(Cc1cccc(C(F)(F)F)c1)Nc1cccc(Cl)n1 [Compound 27] | 99.3 | 31.2 | > 500 | 15.6 (≈ 49.7 µM) | 146 | > 500 | > 500 | > 500 | > 500 | 250 (≈ 78.7 µg/mL) | 250 (≈ 78.7 µg/mL) | > 500 | > 500 | > 500 | > 500 | > 500 | > 500 | > 500 | > 500 | > 500 | SI (selectivity index) [1]: 1.5; MIC ([12]; 48 h, read-out: MIC CA 48h): > 500 µM; MIC ([13]; 24 h, read-out: MIC CK 24h): > 500 µM; MIC ([13]; 48 h, read-out: MIC CK 48h): > 500 µM; MIC ([14]; 24 h, read-out: MIC CP 24h): > 500 µM; MIC ([14]; 48 h, read-out: MIC CP 48h): > 500 µM; MIC ([15]; 24 h, read-out: MIC CT 24h): > 500 µM; MIC ([15]; 48 h, read-out: MIC CT 48h): > 500 µM; MIC [16, 21]: > 500 µM; MIC [16, 22]: > 500 µM; MIC [17, 23]: > 500 µM; MIC [17, 24]: > 500 µM; MIC ([18]; 72 h, read-out: MIC TI 72h): > 500 µM; MIC ([18]; 120 h, read-out: MIC TI 120h): > 500 µM; MIC [19, 25]: > 500 µM; MIC [19, 26]: > 500 µM; MIC KP 24h [20]: > 500 µM; MIC KP 48h [20]: > 500 µM
3 | O=C(Cc1ccc(C(F)(F)F)cc1)Nc1ccccn1 [Compound 28] | 112 | 31.2 | > 500 | > 500 | 408 | > 500 | > 500 | > 500 | > 500 | > 500 | > 500 | > 500 | > 500 | > 500 | > 500 | > 500 | > 500 | > 500 | > 500 | > 500 | SI (selectivity index) [1]: 3.7; MIC ([12]; 48 h, read-out: MIC CA 48h): > 500 µM; MIC ([13]; 24 h, read-out: MIC CK 24h): > 500 µM; MIC ([13]; 48 h, read-out: MIC CK 48h): > 500 µM; MIC ([14]; 24 h, read-out: MIC CP 24h): > 500 µM; MIC ([14]; 48 h, read-out: MIC CP 48h): > 500 µM; MIC ([15]; 24 h, read-out: MIC CT 24h): > 500 µM; MIC ([15]; 48 h, read-out: MIC CT 48h): > 500 µM; MIC [16, 21]: > 500 µM; MIC [16, 22]: > 500 µM; MIC [17, 23]: > 500 µM; MIC [17, 24]: > 500 µM; MIC ([18]; 72 h, read-out: MIC TI 72h): > 500 µM; MIC ([18]; 120 h, read-out: MIC TI 120h): > 500 µM; MIC [19, 25]: > 500 µM; MIC [19, 26]: > 500 µM; MIC KP 24h [20]: > 500 µM; MIC KP 48h [20]: > 500 µM
